According to patent US20250263404A1, “AMINOPYRIDINES AS ACTIVATORS OF PI3 KINASE” (UCL Business Ltd, priority 2021, published 2025):

Columns and labels:
PI3Kα-WT MEFs = test: Cell cycle progression by EdU incorporation in MEFs; type: cell-based, mouse
Protocol: Click-IT EdU strategy was used according to manufacturer instructions (Sigma-Aldrich #BCK-FC488-50). Briefly, MEFs were seeded at 50,000 cells per well in 6-well plates in DMEM supplemented with 10% FBS and 1% P/S, and allowed to attach overnight. The next day, cells were serum-starved for 5 h prior to compound addition in fresh serum-free DMEM. At different time points, cells were pulsed for 3 h with 10 μM EdU, followed by collection by trypsinization and fixation with 3.7% FA in PBS for 15 min in the dark, washed in 3% BSA and permeabilized in 1× saponin-based permeabilization buffer for 20 min in the dark. EdU was then detected using the FAM-azide assay cocktail for 30 min in the dark. Cells were washed twice in 1× saponin-based permeabilization buffer followed by analysed with flow cytometer (Novocyte Advanteon flow cytometer, Agilent).

p110α/p85α = biological target: T1, p110α/p85α (Homo sapiens, UniProt P42336); test: HDX-MS of full-length p110α/p85α; details: wild-type p110α/p85α
T1 construct: Full-length p110α was expressed in a complex with full-length p85α (for biochemistry and HDX-MS); 6xHis followed by TEV protease site (N); made in house; host or cells: Spodoptera frugiperda Sf9 (baculovirus co-infection; plasmids OP831 and OP809)
Description: The inventors used hydrogen-deuterium exchange mass spectrometry (HDX-MS) which allows the investigation of compound binding sites and conformational changes using soluble, native proteins, and which has been key to unravel the molecular mechanisms of physiological activation of class IA PI3Ks. Class IA PI3K activation occurs through de-inhibition of the auto-inhibited p85/p110 complex, via the release of inhibitory interactions between p85 and p110, upon binding of the complex to bis-phosphorylated motifs in membrane-resident receptors or cytosolic adaptors. […]
In total, three biological replicates, i.e., three separate protein preparations, each with exchange experiments were carried out in triplicate were conducted. […] A “blank” sample of protein dilution buffer with quench was run between samples, and carry-over of peptides was routinely monitored. […] Data was analysed using Protein Lynx Global Server (Waters) and DynamX (Waters). […] Data quality, experiment design, and reporting of data meets the criteria as determined by the HDX-MS community (Masson, G. R. et al. Nat Methods 16, 595-602 (2019)). […]

[1] = test system: mutant PI3Kα (D603K, D603A, 603DCN_AAA605, D603A/F1016S, L1006R, F1016S, L1006R/F1016S); test: Activation of binding-pocket mutants of PI3Kα; type: biochemical; details: all mutants activatable by pY
Description: The inventors then performed mutagenesis in attempt to generate 1938-resistant mutants. Based on the crystal structure and SAR data, we made the following mutants: D603K, D603A, 603DCN_AAA605 triple mutant, D603A/F1016S double mutant, L1006R, F1016S, and the L1006R/F1016S double mutant.

T1 sequence (P42336 whole entry): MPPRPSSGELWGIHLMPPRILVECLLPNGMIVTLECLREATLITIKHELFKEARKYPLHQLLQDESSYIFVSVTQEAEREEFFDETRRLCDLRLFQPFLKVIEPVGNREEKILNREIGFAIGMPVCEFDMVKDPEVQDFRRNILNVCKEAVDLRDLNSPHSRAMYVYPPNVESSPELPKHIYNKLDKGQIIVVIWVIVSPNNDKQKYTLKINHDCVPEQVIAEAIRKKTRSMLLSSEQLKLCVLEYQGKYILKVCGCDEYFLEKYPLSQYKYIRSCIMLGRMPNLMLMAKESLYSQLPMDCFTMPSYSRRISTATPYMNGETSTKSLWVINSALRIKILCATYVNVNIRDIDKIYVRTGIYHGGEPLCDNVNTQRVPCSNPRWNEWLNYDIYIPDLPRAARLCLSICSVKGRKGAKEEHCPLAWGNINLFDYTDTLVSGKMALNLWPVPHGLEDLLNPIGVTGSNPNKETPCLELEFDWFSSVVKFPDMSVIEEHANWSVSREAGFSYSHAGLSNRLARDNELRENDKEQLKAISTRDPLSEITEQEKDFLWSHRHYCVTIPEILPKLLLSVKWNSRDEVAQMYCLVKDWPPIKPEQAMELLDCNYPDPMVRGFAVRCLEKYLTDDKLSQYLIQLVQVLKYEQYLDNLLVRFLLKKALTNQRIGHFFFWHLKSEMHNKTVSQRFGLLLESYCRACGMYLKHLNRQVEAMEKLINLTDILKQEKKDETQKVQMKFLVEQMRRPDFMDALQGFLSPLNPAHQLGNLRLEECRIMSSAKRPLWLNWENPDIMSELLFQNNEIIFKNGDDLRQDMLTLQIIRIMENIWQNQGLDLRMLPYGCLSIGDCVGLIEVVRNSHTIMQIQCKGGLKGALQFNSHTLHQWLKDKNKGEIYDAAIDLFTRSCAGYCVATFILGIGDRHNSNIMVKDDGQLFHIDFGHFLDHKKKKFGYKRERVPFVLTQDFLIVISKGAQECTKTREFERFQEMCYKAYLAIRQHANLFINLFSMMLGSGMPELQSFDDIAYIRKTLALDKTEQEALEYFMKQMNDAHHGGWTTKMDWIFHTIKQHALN
T1 sequence (P27986 whole entry partner): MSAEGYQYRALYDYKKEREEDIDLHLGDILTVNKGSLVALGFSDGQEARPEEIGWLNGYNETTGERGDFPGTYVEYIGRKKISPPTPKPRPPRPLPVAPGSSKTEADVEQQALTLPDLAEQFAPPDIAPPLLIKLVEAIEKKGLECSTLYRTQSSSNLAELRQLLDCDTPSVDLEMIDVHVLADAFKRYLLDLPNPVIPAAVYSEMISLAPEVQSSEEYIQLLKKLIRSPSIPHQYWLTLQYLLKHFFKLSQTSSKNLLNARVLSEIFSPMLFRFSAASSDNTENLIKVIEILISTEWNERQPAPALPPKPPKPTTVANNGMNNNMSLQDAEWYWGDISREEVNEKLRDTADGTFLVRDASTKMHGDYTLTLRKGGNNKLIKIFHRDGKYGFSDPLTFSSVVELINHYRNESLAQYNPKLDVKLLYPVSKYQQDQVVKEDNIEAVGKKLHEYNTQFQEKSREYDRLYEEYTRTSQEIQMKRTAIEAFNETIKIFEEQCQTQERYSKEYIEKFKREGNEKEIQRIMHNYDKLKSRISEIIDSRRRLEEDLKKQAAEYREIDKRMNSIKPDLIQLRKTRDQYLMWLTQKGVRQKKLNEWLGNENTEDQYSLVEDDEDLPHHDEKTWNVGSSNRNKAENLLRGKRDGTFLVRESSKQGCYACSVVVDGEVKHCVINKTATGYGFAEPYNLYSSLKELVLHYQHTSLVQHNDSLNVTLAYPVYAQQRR

Movement of the adapter-binding domain (p110α/p85α): −/?
activation of pocket mutants by 1938 [1]: resistant to activation by 1938
Structure (SMILES): CCN1CCN(c2ccc(Nc3cc(Nc4cccc5c4N(C(C)=O)CC5)ccn3)cc2)CC1 [Example 1938]
cell cycle progression (EdU incorporation) (PI3Kα-WT MEFs): induced cell cycle progression
